Test results: patent US20240299401A1, “NOVEL REDOX-BASED THERAPEUTIC APPROACH FOR TREATMENT OF CANCER” (THE PENN STATE RESEARCH FOUNDATION, priority 2020, published 2024)
Like-named read-outs stand apart in the source and are kept apart here.

Columns and labels:
[1] = tested on: extracellular reduced thiols; assay: Extracellular thiols measurement (DTDP method); format: cell-based, human; settings: for thiols efflux: A549 and H1299, 24 h, Erastin 5 μM, MSG 50 mM, Sorafenib 2.5 μM, trans-2,4-PDC 100 μM; for extracellular reduced thiols levels: MCF7 cells
Protocol: Cell culture media was collected at specified time points after incubation with the respective compounds as described in the respective figure legends and extracellular total thiols were measured using the DTDP method 19. The protocol was adjusted to 96-well plate format. […] Absorbance was measured at 324 nm in a spectrophotometer (PowerWave HT, BioTek, VT, USA). The assay mixture with fresh media was used as a blank.

A549 = assay: WST-1 cytotoxicity, A549; format: cell-based, human; settings: A549 (Lung), compound alone, 24 h, '>' = dose approximation, read-out: IC50 values
Protocol: (§1) Two different cytotoxicity/proliferation kit was used in this study i.e., WST-1 proliferation assay kit (Roche, Indianapolis, IN, USA; Cat #28620000) and Cell-titer Glo-luminescent cell viability assay (Promega, WI, USA; Cat #0000348721). Majority of the cell proliferation/cytotoxicity experiments were performed with WST-1 assay. Briefly, cells were seeded at the indicated density for 24 h in 96 well plate, media was replaced, and subsequently treated with the test compounds at different doses. […] Cell titer Glo-assay was additionally performed in certain cases to validate the results from WST-1 assay as outlined above following manufacturer's instructions and luminescence was measured using a FLx100 Luminometer (CLARIOSTAR®, Ortenbery, Germany). […] Other proliferation/cytotoxicity assays were also carried out i.e., Quant™-iT PicoGreen ds DNA assay kit (Thermo Scientific, Rockwood, TN, USA, P7589) following manufacturer's instructions, Trypan blue (Sigma, Ayrshire, UK, T8154) and acid phosphatase assay for validation of cytotoxicity/proliferation data from other assays.

HL60 = assay: WST-1 cytotoxicity and synergy analysis, HL60; format: cell-based, human; settings: HL60 (Leukemia), compound alone, 24 h, '>' = dose approximation, read-out: IC50 values
Protocol: as §1

NB4 = assay: WST-1 cytotoxicity, NB4; format: cell-based, human; settings: NB4 (Leukemia), compound alone, 24 h, '>' = dose approximation, read-out: IC50 values
Protocol: as §1

ATF4 = settings: HEK293 ATF4 reporter; tunicamycin 2.5 μM, other compounds 5.0 μM; 24 h
Protocol: The next day, media was replaced with respective compounds as described. Twenty-four hours post-treatment, media were aspirated and replaced with 1:1 ratio of PBS:Bright Glo luciferase reagent mix (Promega, Madison, WI, USA) according to manufacturer's protocol. Cells were incubated in the dark for 10 min at room temperature with gentle rocking and luciferase activity was measured using an FLx100 Luminometer (CLARIOSTAR®, Ortenbery, Germany). In parallel, the same setup was made, and the cells were used to monitor the proliferation/toxicity of individual exposed compounds. Luciferase signal is normalized to the to the proliferation/toxicity of the individual compounds. Bortezomib (50 nM, Sigma-Aldrich, St. Louis, MO, USA), a known agonist for ATF4, was used as a positive control.
The next day, old media was replaced with media containing the respective compounds as described in the figure legends. […] Cells were incubated in the dark for 10 min at room temperature with gentle rocking and luciferase activity was measured using an FLx100 Luminometer (CLARIOSTAR®, Ortenbery, Germany). […] In parallel, the same setup was made, and the cells were used to monitor the proliferation/toxicity of individual compounds. Luciferase signal was normalized to correct for the proliferation/toxicity of the individual compounds. […] For ATF4 reporter assay, Hek293T reporter cells 20 were cultured similarly as indicated for MCF7 cells, except for seeding density was set at 300 cells/mm2. All other experimental set up was similar.

H661 = assay: WST-1 cytotoxicity, H661; format: cell-based, human; settings: H661 (Lung), compound alone, 24 h, '>' = dose approximation, read-out: IC50 values
Protocol: as §1

H1299 = assay: WST-1 cytotoxicity, H1299; format: cell-based, human; settings: H1299 (Lung); compound alone; 24 h; '>' = dose approximation; read-out: IC50 values
Protocol: as §1

SLC7A11 = SLC7A11 mRNA expression (qRT-PCR); settings: HL60 and H1299 cells
MCF-7 = assay: WST-1 cytotoxicity, MCF-7; format: cell-based, human; settings: MCF7 (Breast); compound alone; 24 h; '>' = dose approximation; read-out: IC50 values
Protocol: as §1

Compound: N[C@@H](CCC(=O)O)C(=O)[O-].[Na+] [mono-sodium glutamate]
- thiols efflux [1]: inhibited thiols efflux

Compound: C[S+]([O-])CCCCN=C=S (stereo not drawn) [Sulforaphen, reference compound]
- IC50 (A549; Homo sapiens): > 10 µM
- IC50 (HL60; Homo sapiens, HL-60): > 20 µM
- IC50 (NB4; Homo sapiens, NB-4): > 20 µM
- ATF4 activity (ATF4): not effective
- IC50 (H661; Homo sapiens, NCI-H661): > 10 µM
- extracellular reduced thiols levels [1]: induced

Compound: Tunicamycin [reference compound]
- IC50 (H1299): > 20 µM
- SLC7A11 expression (SLC7A11): Increased SLC7A11 expression
- ATF4 activity (ATF4): Increased ATF4 activity
- IC50 (MCF-7): > 5 µM

Compound: O=C(O)[C@H]1CN[C@H](C(=O)O)C1 (relative stereo) [trans-2,4-PDC]
- thiols efflux [1]: no effect

Compound: CC(C)(C)c1cc(O)ccc1O [Tert-butyl hydroxyquinone, reference compound]
- IC50 (A549): > 20 µM
- IC50 (HL60): > 25 µM
- IC50 (NB4): > 20 µM
- IC50 (H1299): > 100 µM
- SLC7A11 expression (SLC7A11): Increased SLC7A11 expression
- ATF4 activity (ATF4): not effective
- IC50 (H661): > 40 µM
- extracellular reduced thiols levels [1]: induced
- IC50 (MCF-7): > 60 µM

Compound: c1ccc(C[Se][Se]Cc2ccccc2)cc1 [DBDS, dibenzyl diselenide]
- extracellular reduced thiols ([1]; HEK293 ATF4 reporter cells, 5.0 μM): increased levels of extracellular reduced thiols
- extracellular reduced thiols ([1]; all the tested cell lines, H1299 and HL60): highly effective

Compound: c1ccc(SSc2ccccc2)cc1 [Phenyl disulfide]
- IC50 (A549; Homo sapiens): > 40 µM
- IC50 (HL60; Homo sapiens, HL-60): > 40 µM
- IC50 (NB4; Homo sapiens, NB-4): > 20 µM
- IC50 (H661; Homo sapiens, NCI-H661): > 20 µM
